Like-named read-outs stand apart in the source and are kept apart here.
What was measured:
[1] = test system: MHV, FIPV, Middle East respiratory syndrome (MERS)-CoV, VSV, IAV; details: cited from earlier work
[2] = in vitro; details: human
[3] = test system: Japanese Encephalitis Virus; details: cited from earlier work
[4] = test system: Chikungunya virus (CHIKV); details: human cells; cited from earlier work
[5] = test system: quail cardiomyocytes; details: for Effect on cardiomyocytes contractility compared to digoxin: all concentrations tested, 10 minutes and 30 minutes after addition (FIGS. 5, 6)
[6] = test system: herpes simplex virus; details: cited from earlier work
[7] = test system: Human respiratory syncytial virus (RSV); details: human small airway epithelial cells; cited from earlier work
[8] = test system: influenza virus; details: cited from earlier work
[9] = test system: transmissible gastroenteritis coronavirus (TGEV); details: swine testicular (ST) cells; cited from earlier work
[10] = test system: NCI-60 cell line panel; assay: NCI-60 one-dose cancer cell growth testing; type: cell-based, human; details: FIGS. 13-15
Procedure: The anti-proliferative activity of the target compounds was tested against the NCI-60 cell line panel. The screening was performed at the National Cancer Institute (NCI), Bethesda, Maryland, USA (www.dtp.nci.nih.gov), according to their standard protocol (https://dtp.cancer.gov/discovery_development/nci-60/methodology.htm).
In the anti-cancer studies were performed at the NCI, NIH in the one-dose testing of the NCI-60 project (https://dtp.cancer.gov/discovery_development/nci-60/methodology.htm). The numbers reported are growth relative to the no-drug control, and relative to the time zero number of cells. This allows detection of both growth inhibition (values between 0 and 100) and lethality (values less than 0). For example, a value of 100 means no growth inhibition. A value of 40 would mean 60% growth inhibition. A value of 0 means no net growth over the course of the experiment. A value of −40 would mean 40% lethality. A value of −100 means all cells are dead.

[11] = test system: Neuroblastoma (SH-SY5Y) cells
[12] = test system: Na^+, K^+-ATPase; details: for Inhibition of brain microsomal Na+,K+-ATPase activity, potency in comparison to Bufalin: FIGS. 2 and 3

Row | Structure (SMILES) | viability at 5 µM [2] [%] | viability at 25 µM [2] [%] | viability at 50 µM [2] [%] | viability at 100 µM [2] [%] | Efficiency against Japanese Encephalitis Virus [3] | Effect on infection by CHIKV [4] | Most sensitive cancer cell line [10] | Effect on cardiomyocytes contractility compared to digoxin [5] | Cytotoxic potency in comparison to the other steroids [11] | Inhibition of brain microsomal Na+,K+-ATPase activity, potency in comparison to Bufalin [12] | further results
1 | C[C@]12CC[C@H](O)C[C@H]1CC[C@@H]1[C@@H]2CC[C@]2(C)[C@@H](c3ccc(=O)oc3)CC[C@]12O [Bufalin, bufalin] | – | – | – | – | – | – | – | – | – | – | Effect on infection of cells with viruses [1]: inhibited infection of cells with MHV, FIPV, Middle East respiratory syndrome (MERS)-CoV, and VSV, but not IAV
2 | C[C@H]1O[C@@H](O[C@H]2[C@@H](O)C[C@H](O[C@H]3[C@@H](O)C[C@H](O[C@H]4CC[C@@]5(C)[C@H](CC[C@@H]6[C@@H]5C[C@@H](O)[C@]5(C)[C@@H](C7=CC(=O)OC7)CC[C@]65O)C4)O[C@@H]3C)O[C@@H]2C)C[C@H](O)[C@@H]1O [Digoxin, digoxin] | 23.4 | 1.02 | 0.26 | 2.55 | robust efficiency against the virus | dose-dependent decrease in infection | – | – | – | – | –
3 | NC[C@H](O)c1ccc(O)c(O)c1 [noradrenaline] | – | – | – | – | – | – | – | – | – | – | Effect on cardiomyocytes contractility ([5]; dose-dependently, FIG. 4): increased
4 | C[C@@H]1O[C@@H](O[C@H]2C[C@@H](O)[C@]3(CO)[C@H]4[C@H](O)C[C@]5(C)[C@@H](C6=CC(=O)OC6)CC[C@]5(O)[C@@H]4CC[C@]3(O)C2)[C@H](O)[C@H](O)[C@H]1O [Ouabain, ouabain] | 6.26 | 1.92 | 0.51 | 4.09 | robust efficiency against the virus | dose-dependent decrease in infection | – | – | – | – | Reduction of expression of viral immediate-early and early genes [6]: at least 5 fold; Effect on RSV entry [7]: inhibited; Effect on infection of cells with viruses ([1]; nM concentrations): inhibited infection of cells with MHV, FIPV, Middle East respiratory syndrome (MERS)-CoV, and VSV, but not IAV; Effect on influenza virus replication [8]: decrease influenza virus replication; Effect on TGEV-induced production of IL-6 [9]: inhibit the TGEV-induced production of IL-6 in a dose dependent manner
5 | C[C@]12CC=CCC1CCC1C2CC[C@]2(C)[C@@H](c3ccc(=O)oc3)CC[C@]12O (stereo partly drawn) [Compound 1, bufalin 2,3-ene] | 32.2 | 13.8 | 5.62 | 1.28 | – | – | SNB-19 | stronger effect on contractility than digoxin | lower cytotoxic potency | approximately the same potency as Bufalin | –
6 | C[C@]12CCC=CC1CCC1C2CC[C@]2(C)[C@@H](c3ccc(=O)oc3)CC[C@]12O (stereo partly drawn) [Compound 2, bufalin 3,4-ene] | 53.8 | 24.7 | 11.5 | 6.13 | – | – | SNB-19 | stronger effect on contractility than digoxin | lower cytotoxic potency | more potent inhibitor | Inhibition of Na+,K+-ATPase activity at very low concentrations in comparison to Bufalin ([12]; very low (nanomolar) concentrations): better than Bufalin
